This note sets out measurements from patent publication US4029801A, “Pharmaceutical compositions and methods of treating hypertension” (priority 1970, dated 1977).

Structures are written as SMILES. Like-named read-outs stand apart in the source and are kept apart here.

The nature of data set [1]: Depressant activity. Type of data set: in vivo. Conditions: result in words.
The subject of data set [2] is blood pressure. The data set is described as follows: Tests for action on the cardiovascular system: hypotensive activity (activity in method 1, rats or cats, or method 2), reported in words. Type of data set: in vivo, rat, cat. Conditions: standard test procedure, result in words. The procedure: Tests for action on the cardiovascular system were conducted according to one of the following procedures:
Cats were anaesthetised with pentobarbitone sodium (30 mg/kg) and the cephalic vein, femoral and carotid arteries and trachea were cannulated. The carotid cannula was introduced into the left ventricle and the femoral cannula into the aorta. Blood pressure and heart rate were recorded from the aortic cannula and left ventricular pressure from the carotid cannula. The test compunds were administered intravenously (0.1-25.6 mg/kg).
(§1) Method 2 (hypertensive rats)
(§2) Male or female rats are rendered hypertensive by applying a figure of 8 ligature around one kidney and contralateral nephrectomy. Blood pressure stabilises at a hypertensive level after 6 weeks. Systolic pressure is measured indirectly using a Decker Caudal Plethysmograph A control group of rats is run with each group treated with drug. Each group usually consists of six rats. Drugs are usually administered by the IP or oral routes. Pressures are read prior to drug administration and at two and 24 hours thereafter.

Data set [3] deals with blood pressure and heart rate. The data set is described as follows: Method 1 (rat): hypotensive activity in anaesthetised rats, i.v. The settings on record: for minimal effective dose: Rattus norvegicus, iv; for Significant bradycardia (dose; decrease in heart rate of more than 30%): anaesthetised rat, i.v., cumulative dose.
Description: Rats were anaesthetised with pentobarbitone sodium (60 mg/kg) and the jugular vein, trachea and carotid artery were cannulated. […] A decrease in heart rate of more than 30% from control values was considered to be significant bradycardia.
The target of data set [4] is T1, histamine (Cavia porcellus, UniProt P31389).
T1 construct: from tissue
T1 sequence (P31389 whole entry): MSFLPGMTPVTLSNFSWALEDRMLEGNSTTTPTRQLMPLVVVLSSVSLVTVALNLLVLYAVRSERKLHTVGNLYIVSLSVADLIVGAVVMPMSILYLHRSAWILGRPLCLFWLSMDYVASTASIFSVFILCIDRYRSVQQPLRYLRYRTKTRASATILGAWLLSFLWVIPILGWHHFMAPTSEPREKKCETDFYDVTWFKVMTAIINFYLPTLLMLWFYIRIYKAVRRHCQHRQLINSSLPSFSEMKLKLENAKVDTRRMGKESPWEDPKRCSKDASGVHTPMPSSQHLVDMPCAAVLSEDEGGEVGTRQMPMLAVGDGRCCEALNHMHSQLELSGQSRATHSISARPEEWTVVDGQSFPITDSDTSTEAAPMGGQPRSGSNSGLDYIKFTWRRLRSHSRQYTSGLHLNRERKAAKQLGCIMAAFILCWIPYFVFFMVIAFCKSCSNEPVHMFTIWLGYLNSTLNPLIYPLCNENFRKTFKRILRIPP
The data set is described as follows: Antihistamine activity by the method of Alps et al. Conditions: for antihistamine activity: result in words.

The subject of data set [5] is α-adrenoceptor. The data set is described as follows: α-Adrenoceptor antagonism on the guinea pig aortic strip. Conditions: for α-blockade pA2: Table 4; for α-adrenoceptor antagonism: result in words; for pA2 (α-adrenoceptor antagonism): guinea pig aortic strip. The source says:
Carried out on the guinea pig aortic strip [Furchgott and Bhadrakom (1953) J. Pharmac. exp. Ther. 108, 129-143] by the method of Alps et al [Br. J. Pharmac. 1972 44, 52-62].

For data set [6], the system named is tremorine. The data set is described as follows: Anti-tremorine activity. Type of data set: in vivo. The settings on record: result in words.
A short description of data set [7]: Anti-inflammatory activity. Type of data set: in vivo. Conditions: result in words.
Data set [8] concerns systolic pressure. The data set is described as follows: Method 2: anti-hypertensive activity in renal hypertensive rats. Conditions: hypertensive rat. Type of data set: in vivo, rat. The procedure: as §1, §2
Falls in systolic blood pressure 2 hr after an oral dose of 40 mg/kg: >50
mm, +++; 50-30 mm, ++; 30-15 mm, +; <15 mm, ±. g Oral dose of 75 mg/kg
h Oral dose of 10 mg/kg. i Oral dose of 2.5 mg/kg.

[9] abbreviates: 0.25 h, read-out: Hypotensive Activity.
The mark [10] stands for this setting: Table 4, read-out: Antihistamine pA2 (converted).
Where [11] appears, read: read-out: Significant hypotension (dose; fall of 30 mm mercury or more in diastolic pressure).
[12] abbreviates: pA2 (antihistamine activity), Table 2.

As for `COc1ccc(CCN2CCC(N)CC2)cc1OC` [Example 4, 1-[2-(3,4-Dimethoxyphenyl)ethyl]-4-aminopiperidine], the depressant activity result in data set [1] was “depressant activity”. Moreover, the hypotensive activity entry in data set [2] is listed as “hypotensive”.
On to `COc1ccc(CCN2CCC(NC(=O)c3ccc4c(c3)OCO4)CC2)cc1OC` [Example 7, 1-[2-(3,4-Dimethoxyphenyl)ethyl]-4-piperonylamidopiperidine], for which, in data set [3] (setting [9]), the minimal effective dose was less than 30 mg/kg. In data set [1], the depressant activity entry is given as “depressant activity”. Besides, the hypotensive activity result in data set [2] is given as “hypotensive”.
Turning to `O=C(NC1CCN(CCc2ccc(O)c(O)c2)CC1)c1ccccc1` [Example 9, 1-[2(3,4-Dihydroxyphenyl)ethyl]-4-benzamidopiperidine], the minimal effective dose in data set [3] (setting [9]) is less than 30 mg/kg. For the same compound, the depressant activity result in data set [1] is given as “depressant activity”. In addition, the antihistamine activity entry in data set [4] was “antihistamine”.
For the compound `O=C(CN1CCC(NC(=O)c2ccccc2)CC1)c1ccccc1` [Example 10, 1-Phenacyl-4-benzamidopiperidine], the minimal effective dose in data set [3] (setting [9]) was 6.4 to 12.8 mg/kg. For the same compound, in data set [1], the depressant activity entry is “depressant activity”. Also, the “α-blockade pA2” value in data set [5] worked out at 5.8. Besides, the hypotensive activity result in data set [2] was “hypotensive”.
In the case of `O=C(NC1CCN(CC(O)COc2cccc3ccccc23)CC1)c1ccccc1` (stereo not drawn) [Example 21, 1-[3-(1-Naphthoxy)-2-hydroxyprop-1-yl]-4-benzamidopiperidine], the minimal effective dose in data set [3] (setting [9]) lay in the range of 6.4 to 12.8 mg/kg. Moreover, the depressant activity result in data set [1] was “some depressant activity”. Further, in data set [2], the hypotensive activity result was “hypotensive activity”.
`O=C(NC1CCN(CCc2ccc([N+](=O)[O-])cc2)CC1)c1ccccc1` [Example 22, 1-[2-(p-Nitrophenyl)ethyl]-4-benzamidopiperidine]: the minimal effective dose in data set [3] (setting [9]) turned out to be 25.6 mg/kg. In addition, in data set [1], the depressant activity entry is on record as “depressant”. Besides, in data set [6], the anti-tremorine activity entry is on record as “anti-tremorine activities”. Besides, the hypotensive activity result in data set [2] was “hypotensive activity”.
For `Nc1ccc(CCN2CCC(NC(=O)c3ccccc3)CC2)cc1` [Example 23, 1-[2-(p-Aminophenyl)ethyl]-4-benzamidopiperidine], the minimal effective dose in data set [3] (setting [9]) was less than 30 mg/kg. In addition, the depressant activity result in data set [1] is recorded as “depressant activity”. Moreover, the hypotensive activity result in data set [2] was “hypotensive activity”.
Consider `CC(=O)Nc1ccc(CCN2CCC(NC(=O)c3ccccc3)CC2)cc1` [Example 24, 1-[2-(p-Acetamidophenyl)ethyl]-4-benzamidopiperidine], for which the minimal effective dose in data set [3] (setting [9]) is 6.4 to 12.8 mg/kg. Also, the depressant activity entry in data set [1] is listed as “depressant”. Moreover, in data set [6], the anti-tremorine activity result is reported as “anti-tremorine activities”. Moreover, the hypotensive activity entry in data set [2] is “hypotensive activity”.
For `O=C(CN1CCC(NC(=O)c2ccccc2)CC1)c1ccc(Cl)c(Cl)c1` [Example 34], the minimal effective dose in data set [3] (setting [9]) was less than 30 mg/kg. Besides, the depressant activity result in data set [1] was “depressant activities”. Moreover, the hypotensive activity entry in data set [2] is given as “hypotensive”.
Taken in the same sequence, the figures for `Nc1ccccc1CCN1CCC(NC(=O)c2ccccc2)CC1` [Example 35, 1-[2-(o-Aminophenyl)ethyl]-4-benzamidopiperidine] were 6.4 to 12.8 mg/kg, “depressant activities” and “hypotensive”.
Regarding `O=C(NC1CCN(CCc2ccc(Cl)c(Cl)c2)CC1)c1ccccc1` [Example 37, 1-[2-(3,4-Dichlorophenyl)ethyl]-4-benzamidopiperidine], in data set [3] (setting [9]), the minimal effective dose lay within 1.6 to 3.2 mg/kg. In data set [5], the “α-blockade pA2” value worked out at 7.35 and the α-adrenoceptor antagonism entry is “α-adrenoceptor antagonism”. Moreover, in data set [4] (setting [10]), the Kb was 3.98 nM. Further, in data set [4], the antihistamine activity result was “antihistamine”. Further, the anti-tremorine activity entry in data set [6] is on record as “anti-tremorine activities”. For the same compound, in data set [2], the hypotensive activity result is “good hypotensive activity”.
`O=C(NC1CCN(CCc2c(Cl)cccc2Cl)CC1)c1ccccc1` [Example 38, 1-[2-(2,6-Dichlorophenyl)ethyl]-4-benzamidopiperidine]: the minimal effective dose in data set [3] (setting [9]) was less than 30 mg/kg. The depressant activity entry in data set [1] is on record as “depressant activities”. For the same compound, in data set [6], the anti-tremorine activity result is “anti-tremorine”. Also, the hypotensive activity result in data set [2] is given as “hypotensive activity”.
In the case of `O=C(NC1CCN(CCCc2ccccc2)CC1)c1ccccc1` [Example 39, 1-[3-Phenylpropyl]-4-benzamidopiperidine], the minimal effective dose in data set [3] (setting [9]) was in the range of 6.4 to 12.8 mg/kg; in data set [3] (setting [11]), 0.8 to 6.4 mg/kg. The “Significant bradycardia (dose; decrease in heart rate of more than 30%)” value in data set [3] amounted to 25.6 mg/kg. For the same compound, in data set [5], the “pA2 (α-adrenoceptor antagonism)” value is listed as 7.1. Also, the α-adrenoceptor antagonism result in data set [5] is recorded as “α-adrenoceptor antagonism”. The Kb in data set [4] (setting [10]) was 2.51 nM; in data set [4] (setting [12]) it was 3.16 nM. In addition, the antihistamine activity entry in data set [4] is recorded as “anti-histamine”. The anti-tremorine activity entry in data set [6] is recorded as “anti-tremorine activities”. Moreover, in data set [2], the hypotensive activity entry was “good hypotensive activity”.
Consider `O=C(CCCN1CCC(NC(=O)c2ccccc2)CC1)c1ccc(F)cc1` [Example 42, 4-benzamido-1-[4-(p-fluorophenyl)-4-oxobutyl]-piperidine], for which the α-adrenoceptor antagonism entry in data set [5] is reported as “α-adrenoceptor antagonist”. In addition, the antihistamine activity result in data set [4] is given as “antihistamine”. Further, in data set [7], the anti-inflammatory activity result was “anti-inflammatory activity”. For the same compound, the hypotensive activity entry in data set [2] is recorded as “marked hypotensive activity”.
Take `O=C(NC1CCN(Cc2ccc3c(c2)OCO3)CC1)c1ccccc1` [Example 47, 4-Benzamido-1-(3,4-methylenedioxybenzyl)piperidine]: the minimal effective dose in data set [3] (setting [9]) was 25.6 mg/kg. Moreover, the anti-inflammatory activity result in data set [7] is on record as “anti-inflammatory activity”. Moreover, the hypotensive activity entry in data set [2] is “hypotensive activity”.
As to `O=C(CCCN1CCC(NC(=O)c2ccccc2)CC1)c1ccc(Cl)cc1` [Example 51, 4-Benzamido-1-[4-(p-chlorophenyl)-4-oxobutyl]piperidine], the minimal effective dose in data set [3] (setting [9]) fell in the range of 6.4 to 12.8 mg/kg. Also, in data set [5], the “α-blockade pA2” value came out at 8.4 and the α-adrenoceptor antagonism entry is on record as “highly potent α-adrenoceptor antagonist activity”. Besides, in data set [4] (setting [10]), the Kb was 20 nM. Moreover, the antihistamine activity entry in data set [4] is on record as “anti-histamine”. Further, the anti-inflammatory activity result in data set [7] was “anti-inflammatory activity”. Moreover, the hypotensive activity entry in data set [2] is given as “hypotensive activity”.
As for `O=C(NC1CCN(CCCC(O)c2ccc(F)cc2)CC1)c1ccccc1` (stereo not drawn) [Example 54, 1-[4-(p-Fluorophenyl)-4-hydroxybutyl]-4-benzamidopiperidine], the minimal effective dose in data set [3] (setting [9]) and in data set [3] (setting [11]) was 6.4 to 12.8 mg/kg throughout. Moreover, the “Significant bradycardia (dose; decrease in heart rate of more than 30%)” value in data set [3] is 6.4 to 12.8 mg/kg. Also, the “Pressure reduced to” value in data set [8] (10 mg/kg, from 209 mmHg) is listed as 164 mmHg. Further, in data set [8] (40 m.p.k.), the toxicity entry is given as “Toxic”. The “pA2 (α-adrenoceptor antagonism)” value in data set [5] was determined as 6.6. For the same compound, the Kb in data set [4] (setting [12]) was 316 nM. For the same compound, in data set [4], the antihistamine activity result is “potent antihistamine activity”. The hypotensive activity entry in data set [2] was “hypotensive activity”.
For `O=C(NC1CCN(CCc2ccccn2)CC1)c1ccccc1` [Example 94, 1-[2-(2-Pyridyl)ethyl]-4-benzamidopiperidine], the depressant activity result in data set [1] is reported as “depressant activities”. Also, in data set [4], the antihistamine activity entry is reported as “antihistamine”. Further, the hypotensive activity entry in data set [2] is “marked hypotensive activity”.
With `O=C(NC1CCN(CCc2c[nH]c3c2ccc2ccccc23)CC1)c1ccccc1` [Example 101, 1-[2-(3-Benz[g]indolyl)ethyl]-4-benzamidopiperidine], in data set [3] (setting [9]), the minimal effective dose lay within 6.4 to 12.8 mg/kg. In addition, in data set [1], the depressant activity entry is “depressant activity”. The hypotensive activity entry in data set [2] is on record as “marked hypotensive activity”.
Regarding `O=C(NC1CCN(CC2COc3ccccc3O2)CC1)c1ccccc1` (stereo not drawn) [Example 102, 2-(4'-Benzamidopiperid-1-yl)methylbenzo-1,4-dioxan], the anti-inflammatory activity entry in data set [7] is “anti-inflammatory activity”. For the same compound, in data set [2], the hypotensive activity result is “marked hypotensive activity”.
